Measured values reported in ChEMBL document CHEMBL6114969, “Ultra-short lipopeptides containing d-amino acid exhibiting excellent stability and antibacterial activity against gram-positive bacteria” (Eur J Med Chem, 2025).
Values after ≈ are worked out from the molar mass of the structure shown. Active and inactive are the calls of the source. The calls are words filed in the database; no cut-off is given here.

Legend:
[1] = test system: Staphylococcus aureus; assay: Synergistic bactericidal activity against persistent methicillin-resistant Staphylococcus aureus ATCC 33591 incubated for 18 to 24 hrs in presence of ciprofloxacin by time-kill assay; type: functional, organism-based; details: time 18-24 hrs
[2] = test system: Staphylococcus aureus; assay: Antibacterial activity against methicillin-resistant Staphylococcus aureus ATCC 33591 incubated for 18 to 24 hrs in presence of 0.5 mg/ml of trypsin by broth microdilution method; type: functional; details: time 18-24 hrs
[3] = Toxicity in Balb/c mouse assessed as change in serum CREA level at 80 mg/kg, ip measured after 7 days; type: organism-based; details: in vivo, 168 h, time 7 day
[4] = Toxicity in Balb/c mouse assessed as change in heart co-efficient at 20 to 80 mg/kg, ip measured after 7 days; type: organism-based; details: in vivo, 168 h, dose 20-80 mg/kg, time 7 day
[5] = Toxicity in Balb/c mouse assessed as body weight change at 20 to 80 mg/kg, ip measured after 7 days; type: organism-based; details: in vivo, 168 h, dose 20-80 mg/kg, time 7 day
[6] = test system: Staphylococcus aureus; assay: Induction of morphological changes in methicillin-resistant Staphylococcus aureus ATCC 33591 assessed as large area membrane melting at 4 times MIC incubated for 2 hrs by SEM analysis; type: functional, organism-based
[7] = test system: Staphylococcus aureus; assay: Antibacterial activity against methicillin-resistant Staphylococcus aureus ATCC 33591 infected in Balb/c mouse model of acute systemic infection assessed as reduction in bleeding in liver at 10 mg/kg, ip measured after 5 days by H and E staining based analysis; type: functional, organism-based; details: time 5.0 day
[8] = Toxicity in Balb/c mouse assessed as spleen atrophy at 80 mg/kg, ip measured after 7 days; type: organism-based; details: in vivo, 168 h, time 7 day
[9] = Retention time of compound by RP-HPLC analysis; type: physicochemical
[10] = test system: Staphylococcus aureus; assay: Antibacterial activity against methicillin-resistant Staphylococcus aureus ATCC 33591 incubated for 18 to 24 hrs in presence of 2 mg/ml of pepsin by broth microdilution method; type: functional; details: time 18-24 hrs
[11] = test system: Staphylococcus aureus; assay: Antibacterial activity against methicillin-resistant Staphylococcus aureus ATCC 33591 infected in Balb/c mouse model of pneumonia infection assessed as reduction in IL-1beta activity in lung at 10 mg/kg, ip administered thrice at 4, 8 and 12 hrs post-infection measured after 24 hrs post-infection by IHC analysis; type: functional, organism-based; details: time 20.0 hrs
[12] = test system: Staphylococcus aureus; assay: Induction of morphological changes in methicillin-resistant Staphylococcus aureus ATCC 33591 assessed as irregular atrophy at 2 times MIC incubated for 2 hrs by SEM analysis; type: functional, organism-based
[13] = test system: Staphylococcus aureus; assay: Antibacterial activity against methicillin-resistant Staphylococcus aureus ATCC 33591 incubated for 18 to 24 hrs in presence of 1 mg/ml of trypsin by broth microdilution method; type: functional; details: time 18-24 hrs
[14] = test system: Staphylococcus aureus; assay: (§1) Antibacterial activity against methicillin-resistant Staphylococcus aureus ATCC 33591 infected in Balb/c mouse model of acute systemic infection assessed as reduction in inflammatory cell infiltration in lung at 10 mg/kg, ip measured after 5 days by H and E staining based analysis; type: functional, organism-based; details: time 5.0 day
[15] = test system: Staphylococcus aureus; assay: Antibacterial activity against methicillin-resistant Staphylococcus aureus ATCC 33591 infected in Balb/c mouse model of acute systemic infection assessed as reduction in bacterial count in kidney at 10 mg/kg, ip measured after 5 days; type: functional, organism-based; details: time 5.0 day
[16] = Toxicity in Balb/c mouse assessed as kidney atrophy at 80 mg/kg, ip measured after 7 days; type: organism-based; details: in vivo, 168 h, time 7 day
[17] = test system: Staphylococcus aureus; assay: Antibacterial activity against methicillin-resistant Staphylococcus aureus ATCC 33591 infected in Balb/c mouse model of acute systemic infection assessed as reduction in bacterial count in spleen at 10 mg/kg, ip measured after 5 days; type: functional, organism-based; details: time 5.0 day
[18] = test system: Staphylococcus aureus; assay: as §1, with “of skin wound” for “of acute systemic”, “in skin” for “in lung”, “ip administered thrice at 1, 24 and 48 hrs post-infection” for “ip”, “after 14” for “after 5”; type: functional, organism-based; details: time 14.0 day
[19] = test system: Staphylococcus aureus; assay: Antibacterial activity against methicillin-resistant Staphylococcus aureus ATCC 33591 infected in Balb/c mouse model of acute systemic infection assessed as reduction in tubule contraction in kidney at 10 mg/kg, ip measured after 5 days by H and E staining based analysis; type: functional, organism-based; details: time 5.0 day
[20] = test system: Staphylococcus aureus; assay: Bactericidal activity against methicillin-resistant Staphylococcus aureus ATCC 33591 at 4 times MIC incubated for 24 hrs in presence of 8 ug/ml LTA by absorbance based assay; type: functional, organism-based
[21] = test system: Staphylococcus aureus; assay: Antibacterial activity against methicillin-resistant Staphylococcus aureus ATCC 33591 infected in Balb/c mouse model of pneumonia infection assessed as reduction in alveolar contraction in lung at 10 mg/kg, ip administered thrice at 4, 8 and 12 hrs post-infection measured after 24 hrs post-infection in presence of polymyxin B by H and E staining based analysis; type: functional, organism-based; details: time 20.0 hrs
[22] = test system: Staphylococcus aureus; assay: Inhibition of gentamicin-induced drug resistance in methicillin-resistant Staphylococcus aureus ATCC 33591 at sub-MIC measured upto 15 passages; type: functional, organism-based
[23] = test system: Staphylococcus aureus; assay: Antibacterial activity against methicillin-resistant Staphylococcus aureus ATCC 33591 infected in Balb/c mouse model of pneumonia infection assessed as reduction in bacterial load in lung at 10 mg/kg, ip administered thrice at 4, 8 and 12 hrs post-infection measured after 24 hrs post-infection; type: functional, organism-based; details: time 20.0 hrs
[24] = test system: Staphylococcus aureus; assay: Inhibition of ciprofloxacin-induced drug resistance in Staphylococcus aureus ATCC 25923 at sub-MIC measured upto 15 passages; type: functional, organism-based
[25] = test system: Staphylococcus aureus; assay: Antibacterial activity against methicillin-resistant Staphylococcus aureus ATCC 33591 infected in Balb/c mouse model of acute systemic infection assessed as tissue damage repair at 10 mg/kg, ip measured after 5 days in presence of polymyxin B by H and E staining based analysis; type: functional, organism-based; details: time 5.0 day
[26] = test system: Staphylococcus aureus; assay: Antibacterial activity against polymyxin B-resistant Staphylococcus aureus ATCC 25923 incubated for 18 to 24 hrs; type: functional; details: time 18-24 hrs
[27] = test system: Staphylococcus aureus; assay: Antibacterial activity against methicillin-resistant Staphylococcus aureus ATCC 33591 incubated for 18 to 24 hrs in presence of 0.5 mg/ml of chymotrypsin by broth microdilution method; type: functional; details: time 18-24 hrs
[28] = Toxicity in Balb/c mouse assessed as cell swelling in spleen at 80 mg/kg, ip measured after 7 days by H and E staining based analysis; type: organism-based; details: in vivo, 168 h, time 7 day
[29] = test system: Staphylococcus aureus; assay: Antibacterial activity against methicillin-resistant Staphylococcus aureus ATCC 33591 infected in Balb/c mouse model of acute systemic infection assessed as reduction in cell swelling in liver at 10 mg/kg, ip measured after 5 days by H and E staining based analysis; type: functional, organism-based; details: time 5.0 day
[30] = Toxicity in Balb/c mouse assessed as change in serum BUN level at 20 to 80 mg/kg, ip measured after 7 days; type: organism-based; details: in vivo, 168 h, dose 20-80 mg/kg, time 7 day
[31] = test system: Staphylococcus aureus; assay: Inhibition of imipenem-induced drug resistance in methicillin-resistant Staphylococcus aureus ATCC 33591 at sub-MIC measured upto 15 passages; type: functional, organism-based
[32] = test system: Staphylococcus aureus; assay: Antibacterial activity against methicillin-resistant Staphylococcus aureus ATCC 33591 infected in Balb/c mouse model of acute systemic infection assessed as reduction in cell swelling in heart at 10 mg/kg, ip measured after 5 days by H and E staining based analysis; type: functional, organism-based; details: time 5.0 day
[33] = Toxicity in Balb/c mouse assessed as change in liver co-efficient at 20 to 80 mg/kg, ip measured after 7 days; type: organism-based; details: in vivo, 168 h, dose 20-80 mg/kg, time 7 day
[34] = test system: Staphylococcus aureus; assay: Antibacterial activity against drug-resistant methicillin-resistant Staphylococcus aureus ATCC 33591 incubated for 18 to 24 hrs; type: functional; details: time 18-24 hrs
[35] = test system: Staphylococcus aureus; assay: Antibacterial activity against methicillin-resistant Staphylococcus aureus ATCC 33591 incubated for 18 to 24 hrs in presence of 0.5 mg/ml of pepsin by broth microdilution method; type: functional; details: time 18-24 hrs

For `CCCCCCCCCCCC(=O)N[C@H](CCCNC(=N)N)C(=O)N[C@H](CCCNC(=N)N)C(=O)N[C@H](Cc1c[nH]c2ccccc12)C(=O)O`, which Activity [1] is on record?
Its Activity is “Dose-dependent-effect”.

What about the MIC [2] of the same compound?
Its MIC is 4 µM.

What about the Activity [3] of the same compound?
Its Activity is “Toxic”.

And the Activity [4]?
Its Activity is “Non-toxic”.

What about the Activity [5] of the same compound?
The Activity was “Non-toxic”.

And the Activity [6]?
Its Activity is “Active”.

What about the Activity [7] of the same compound?
Its Activity is “Active”.

What about the Activity [8] of the same compound?
Its Activity is “Toxic”.

And the Retention_time [9]?
Its Retention_time is 17.826 min.

And the MIC [10]?
The MIC was 8 µM.

And the Activity [11]?
The Activity was “Active”.

What about the Activity [12] of the same compound?
The Activity was “Active”.

And the MIC [13]?
The MIC was 4 µM.

What about the Activity [14] of the same compound?
The Activity was “Active”.

What about the Activity [15] of the same compound?
Its Activity is “Active”.

What about the Activity [16] of the same compound?
The Activity was “Toxic”.

And the Activity [17]?
Its Activity is “Active”.

And the Activity [18]?
Its Activity is “Active”.

And the Activity [19]?
The Activity was “Active”.

What about the Activity [20] of the same compound?
The Activity was “inactive”.

And the Activity [21]?
Its Activity is “Not active; Compound Exerted Slightly More Severe Than Compound Treatment Alone”.

And the inhibition [22]?
Its inhibition is “Active”.

And the Activity [23]?
The Activity was “Active”.

And the inhibition [24]?
The inhibition was “Active”.

And the Activity [25]?
The Activity was “Active; Compound In Combination Exerted Better Activity Than Polymyxin B Treatment Alone”.

And the MIC [26]?
The MIC was 4 µM (≈ 2.8 µg/mL).

What about the MIC [27] of the same compound?
The MIC was 4 µM.

What about the Activity [28] of the same compound?
The Activity was “Toxic”.

What about the Activity [29] of the same compound?
The Activity was “Active”.

And the Activity [30]?
Its Activity is “Non-toxic”.

And the inhibition [31]?
The inhibition was “Active”.

And the Activity [32]?
Its Activity is “Active”.

What about the Activity [33] of the same compound?
Its Activity is “Toxic”.

What about the MIC [34] of the same compound?
Its MIC is 8 µM (≈ 5.59 µg/mL).

And the MIC [35]?
Its MIC is 8 µM.
